Assay [1] has as its target T1, ATP-binding cassette sub-family C member 4 (Homo sapiens, UniProt O15439).
T1 sequence (O15439 whole entry): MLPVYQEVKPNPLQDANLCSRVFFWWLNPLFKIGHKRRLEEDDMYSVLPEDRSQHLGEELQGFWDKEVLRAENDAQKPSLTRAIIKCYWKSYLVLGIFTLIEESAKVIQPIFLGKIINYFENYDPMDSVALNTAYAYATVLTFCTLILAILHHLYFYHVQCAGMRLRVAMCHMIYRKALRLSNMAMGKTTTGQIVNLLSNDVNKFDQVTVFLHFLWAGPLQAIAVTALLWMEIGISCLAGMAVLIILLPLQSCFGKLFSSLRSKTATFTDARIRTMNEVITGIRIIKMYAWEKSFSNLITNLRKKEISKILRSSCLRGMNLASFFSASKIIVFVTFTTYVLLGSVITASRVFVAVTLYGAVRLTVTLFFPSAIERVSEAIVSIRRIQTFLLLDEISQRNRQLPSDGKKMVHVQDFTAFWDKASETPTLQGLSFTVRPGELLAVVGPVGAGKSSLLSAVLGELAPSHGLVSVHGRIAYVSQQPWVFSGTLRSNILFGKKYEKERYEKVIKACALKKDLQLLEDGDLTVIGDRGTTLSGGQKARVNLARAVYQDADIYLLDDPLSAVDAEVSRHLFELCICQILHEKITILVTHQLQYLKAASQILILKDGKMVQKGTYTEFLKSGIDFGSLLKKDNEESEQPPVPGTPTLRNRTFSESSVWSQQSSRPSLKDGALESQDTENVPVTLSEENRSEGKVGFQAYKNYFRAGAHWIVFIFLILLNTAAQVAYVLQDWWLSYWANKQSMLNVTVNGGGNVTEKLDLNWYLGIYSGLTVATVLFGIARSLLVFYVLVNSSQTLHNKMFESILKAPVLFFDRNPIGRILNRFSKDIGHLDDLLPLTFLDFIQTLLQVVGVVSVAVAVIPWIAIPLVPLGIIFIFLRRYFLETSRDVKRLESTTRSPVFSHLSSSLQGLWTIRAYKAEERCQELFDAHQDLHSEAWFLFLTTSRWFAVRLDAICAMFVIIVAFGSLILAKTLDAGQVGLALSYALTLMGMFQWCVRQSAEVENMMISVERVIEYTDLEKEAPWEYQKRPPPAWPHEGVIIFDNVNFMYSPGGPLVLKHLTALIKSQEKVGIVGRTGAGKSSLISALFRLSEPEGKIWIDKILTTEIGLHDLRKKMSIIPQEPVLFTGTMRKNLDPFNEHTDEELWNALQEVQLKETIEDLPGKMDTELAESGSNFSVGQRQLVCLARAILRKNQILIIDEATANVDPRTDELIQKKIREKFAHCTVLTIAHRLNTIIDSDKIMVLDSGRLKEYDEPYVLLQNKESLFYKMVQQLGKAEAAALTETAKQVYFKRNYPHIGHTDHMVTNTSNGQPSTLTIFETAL
As to the kind of experiment: Inhibition of human MRP4 overexpressed in Sf9 cell membrane vesicles assessed as uptake of [3H]-estradiol-17beta-D-glucuronide in presence of ATP and GSH measured after 20 mins by membrane vesicle transport assay. The assay is classed as ADME, cell-based.

The target of assay [2] is ATP-binding cassette sub-family C member 3 (Homo sapiens, UniProt O15438). As to the kind of experiment: Inhibition of human MRP3 overexpressed in Sf9 insect cell membrane vesicles assessed as uptake of [3H]-estradiol-17beta-D-glucuronide in presence of ATP and GSH measured after 10 mins by membrane vesicle transport assay. The assay is classed as ADME, cell-based.
Assay [3] addresses Bile salt export pump (Homo sapiens, UniProt O95342). In words: Inhibition of human BSEP overexpressed in Sf9 cell membrane vesicles assessed as uptake of [3H]-taurocholate in presence of ATP measured after 15 to 20 mins by membrane vesicle transport assay. The assay is classed as ADME, cell-based.
For assay [4], the target named is ATP-binding cassette sub-family C member 2 (Homo sapiens, UniProt Q92887). In words: Inhibition of human MRP2 overexpressed in Sf9 cell membrane vesicles assessed as uptake of [3H]-estradiol-17beta-D-glucuronide in presence of ATP and GSH measured after 20 mins by membrane vesicle transport assay.

One may read the pIC50 as −log10 of the IC50, conventionally taken in molar units.

SMILES strings stand for the structures. pIC50: −log10 of the molar value. Structures can show the parent of a compound that is named as a salt.

Chain of Bile salt export pump (O95342 whole entry): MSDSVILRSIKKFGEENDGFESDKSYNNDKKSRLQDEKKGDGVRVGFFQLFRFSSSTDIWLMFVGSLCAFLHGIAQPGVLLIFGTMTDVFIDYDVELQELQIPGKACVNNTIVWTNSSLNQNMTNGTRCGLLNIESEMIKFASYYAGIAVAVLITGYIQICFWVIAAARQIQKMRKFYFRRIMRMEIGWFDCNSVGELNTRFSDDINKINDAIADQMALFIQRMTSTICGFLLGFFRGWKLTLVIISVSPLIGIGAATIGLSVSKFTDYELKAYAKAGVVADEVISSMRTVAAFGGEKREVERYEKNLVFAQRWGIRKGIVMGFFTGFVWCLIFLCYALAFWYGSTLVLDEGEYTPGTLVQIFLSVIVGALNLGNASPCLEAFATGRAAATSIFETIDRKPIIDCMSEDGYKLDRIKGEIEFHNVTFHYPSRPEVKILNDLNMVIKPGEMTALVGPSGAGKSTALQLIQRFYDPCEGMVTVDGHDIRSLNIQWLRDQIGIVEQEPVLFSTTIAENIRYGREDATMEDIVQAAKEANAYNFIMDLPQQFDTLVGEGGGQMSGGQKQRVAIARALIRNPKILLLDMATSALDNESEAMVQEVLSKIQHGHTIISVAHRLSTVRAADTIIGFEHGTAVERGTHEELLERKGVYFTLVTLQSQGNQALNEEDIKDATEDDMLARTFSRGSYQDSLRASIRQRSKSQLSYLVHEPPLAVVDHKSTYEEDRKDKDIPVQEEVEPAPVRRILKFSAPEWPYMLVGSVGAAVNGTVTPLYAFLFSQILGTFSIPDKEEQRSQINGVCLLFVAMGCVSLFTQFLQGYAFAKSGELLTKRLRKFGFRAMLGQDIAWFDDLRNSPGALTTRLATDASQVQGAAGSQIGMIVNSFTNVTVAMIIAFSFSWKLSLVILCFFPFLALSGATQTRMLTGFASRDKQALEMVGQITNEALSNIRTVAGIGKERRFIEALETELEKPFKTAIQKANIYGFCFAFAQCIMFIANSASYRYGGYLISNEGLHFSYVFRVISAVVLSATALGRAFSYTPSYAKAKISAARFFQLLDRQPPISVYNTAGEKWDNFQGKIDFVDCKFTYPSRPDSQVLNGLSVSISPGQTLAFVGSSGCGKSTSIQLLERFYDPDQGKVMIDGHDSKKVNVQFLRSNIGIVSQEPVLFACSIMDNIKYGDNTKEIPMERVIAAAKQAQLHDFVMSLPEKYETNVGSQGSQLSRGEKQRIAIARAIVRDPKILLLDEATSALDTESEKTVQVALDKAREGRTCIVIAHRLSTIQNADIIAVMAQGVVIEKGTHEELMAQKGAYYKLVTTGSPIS
Chain of ATP-binding cassette sub-family C member 2 (Q92887 whole entry): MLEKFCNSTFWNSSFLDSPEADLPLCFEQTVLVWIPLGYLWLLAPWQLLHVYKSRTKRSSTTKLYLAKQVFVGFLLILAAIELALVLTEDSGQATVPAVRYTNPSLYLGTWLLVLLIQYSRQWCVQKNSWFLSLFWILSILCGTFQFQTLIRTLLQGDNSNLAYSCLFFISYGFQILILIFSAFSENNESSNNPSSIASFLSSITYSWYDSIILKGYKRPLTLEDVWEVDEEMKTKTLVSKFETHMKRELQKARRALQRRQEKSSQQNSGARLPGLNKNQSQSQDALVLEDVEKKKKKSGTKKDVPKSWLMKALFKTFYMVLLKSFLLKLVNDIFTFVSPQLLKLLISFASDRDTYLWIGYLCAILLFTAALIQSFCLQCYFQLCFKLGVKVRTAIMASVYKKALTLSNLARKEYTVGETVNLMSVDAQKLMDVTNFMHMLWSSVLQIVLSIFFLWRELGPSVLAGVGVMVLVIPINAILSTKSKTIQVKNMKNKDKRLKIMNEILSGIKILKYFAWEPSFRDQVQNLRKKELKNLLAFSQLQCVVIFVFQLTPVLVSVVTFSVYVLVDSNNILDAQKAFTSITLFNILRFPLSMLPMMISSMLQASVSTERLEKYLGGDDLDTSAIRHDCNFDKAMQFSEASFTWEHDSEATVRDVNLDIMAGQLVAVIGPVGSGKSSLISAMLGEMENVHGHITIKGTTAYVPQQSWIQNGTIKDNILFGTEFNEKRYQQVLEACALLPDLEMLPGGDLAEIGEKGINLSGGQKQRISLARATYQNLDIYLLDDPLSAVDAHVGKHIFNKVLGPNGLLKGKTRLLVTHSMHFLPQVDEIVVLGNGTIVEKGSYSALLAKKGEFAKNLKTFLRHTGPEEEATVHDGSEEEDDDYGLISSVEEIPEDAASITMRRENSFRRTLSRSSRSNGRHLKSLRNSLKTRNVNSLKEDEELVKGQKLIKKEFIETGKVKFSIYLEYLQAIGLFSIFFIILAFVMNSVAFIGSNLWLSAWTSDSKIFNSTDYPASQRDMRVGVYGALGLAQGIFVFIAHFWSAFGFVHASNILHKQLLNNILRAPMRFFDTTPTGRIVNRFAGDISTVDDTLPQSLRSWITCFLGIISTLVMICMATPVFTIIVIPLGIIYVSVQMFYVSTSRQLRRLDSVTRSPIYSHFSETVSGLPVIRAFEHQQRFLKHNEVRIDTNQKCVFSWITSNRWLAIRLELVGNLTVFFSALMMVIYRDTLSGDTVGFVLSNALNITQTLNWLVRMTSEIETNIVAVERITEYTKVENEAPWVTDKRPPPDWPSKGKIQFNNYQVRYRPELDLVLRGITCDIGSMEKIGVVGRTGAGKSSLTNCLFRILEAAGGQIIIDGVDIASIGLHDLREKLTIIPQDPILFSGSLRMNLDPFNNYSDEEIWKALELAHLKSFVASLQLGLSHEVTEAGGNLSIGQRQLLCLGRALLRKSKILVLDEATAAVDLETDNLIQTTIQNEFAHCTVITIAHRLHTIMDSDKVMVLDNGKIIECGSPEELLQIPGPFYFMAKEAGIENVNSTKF
Chain of ATP-binding cassette sub-family C member 3 (O15438 whole entry): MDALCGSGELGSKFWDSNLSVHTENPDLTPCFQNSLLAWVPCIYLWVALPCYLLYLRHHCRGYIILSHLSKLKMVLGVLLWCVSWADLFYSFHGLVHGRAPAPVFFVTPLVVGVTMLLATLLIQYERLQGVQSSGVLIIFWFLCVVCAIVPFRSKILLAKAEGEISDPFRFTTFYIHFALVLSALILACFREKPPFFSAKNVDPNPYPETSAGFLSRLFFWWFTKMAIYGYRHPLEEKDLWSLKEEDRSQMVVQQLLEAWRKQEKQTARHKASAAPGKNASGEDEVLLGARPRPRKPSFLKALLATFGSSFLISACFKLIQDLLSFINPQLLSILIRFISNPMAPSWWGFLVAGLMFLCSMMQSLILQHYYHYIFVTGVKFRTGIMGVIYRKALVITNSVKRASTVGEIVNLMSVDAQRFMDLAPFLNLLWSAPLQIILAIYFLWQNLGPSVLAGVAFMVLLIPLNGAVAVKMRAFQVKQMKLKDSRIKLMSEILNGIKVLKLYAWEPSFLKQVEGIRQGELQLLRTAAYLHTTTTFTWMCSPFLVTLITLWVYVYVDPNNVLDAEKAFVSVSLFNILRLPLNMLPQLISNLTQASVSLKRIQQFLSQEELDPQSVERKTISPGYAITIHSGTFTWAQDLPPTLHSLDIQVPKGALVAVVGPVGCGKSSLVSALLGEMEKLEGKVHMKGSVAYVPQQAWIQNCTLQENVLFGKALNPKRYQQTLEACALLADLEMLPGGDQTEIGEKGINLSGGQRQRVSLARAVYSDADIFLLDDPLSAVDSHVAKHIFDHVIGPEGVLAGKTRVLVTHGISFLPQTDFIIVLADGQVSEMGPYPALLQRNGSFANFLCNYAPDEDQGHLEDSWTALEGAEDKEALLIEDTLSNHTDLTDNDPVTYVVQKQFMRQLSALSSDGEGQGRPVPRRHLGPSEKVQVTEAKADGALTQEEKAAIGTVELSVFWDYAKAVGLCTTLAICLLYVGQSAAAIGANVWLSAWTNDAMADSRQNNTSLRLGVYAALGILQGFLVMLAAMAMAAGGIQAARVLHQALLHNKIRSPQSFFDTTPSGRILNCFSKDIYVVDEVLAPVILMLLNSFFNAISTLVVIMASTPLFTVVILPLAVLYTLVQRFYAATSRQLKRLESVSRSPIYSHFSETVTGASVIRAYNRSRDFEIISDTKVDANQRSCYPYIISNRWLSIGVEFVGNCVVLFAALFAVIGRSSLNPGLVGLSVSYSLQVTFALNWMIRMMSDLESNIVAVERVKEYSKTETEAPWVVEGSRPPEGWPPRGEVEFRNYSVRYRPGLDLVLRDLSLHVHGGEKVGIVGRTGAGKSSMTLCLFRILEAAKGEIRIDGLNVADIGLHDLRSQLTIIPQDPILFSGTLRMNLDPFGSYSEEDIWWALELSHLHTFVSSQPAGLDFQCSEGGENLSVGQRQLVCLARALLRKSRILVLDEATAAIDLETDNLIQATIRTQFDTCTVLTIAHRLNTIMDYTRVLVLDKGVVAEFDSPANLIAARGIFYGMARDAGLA

As for `C[C@H]1O[C@H](O[C@H]2[C@H](O)[C@@H](O)[C@@H](O[C@H]3[C@H](O)[C@@H](O)C(O)O[C@@H]3CO)O[C@@H]2CO)[C@H](O)[C@@H](O)[C@@H]1N[C@H]1C=C(CO)[C@@H](O)[C@H](O)[C@H]1O` (some centres undefined) [ACARBOSE], the pIC50 in assay [1], in assay [2], in assay [3] and in assay [4] was under 3.88 in each case.
Turning to `CCN(CC)CCNC(=O)c1ccc(NC(C)=O)cc1` [ACECAINIDE], the pIC50 in assay [1], in assay [2], in assay [3] and in assay [4] was under 3.88 each time.
Consider `CC(=O)Nc1ccc(O)cc1` [ACETAMINOPHEN], for which the pIC50 in assay [1], in assay [2], in assay [3] and in assay [4] was under 3.88 each time.
Consider `Cc1cnc(C(=O)O)c[n+]1[O-]` [ACIPIMOX], for which the pIC50 in assay [1], in assay [2], in assay [3] and in assay [4] was under 3.88 each time.
As to `Nc1nc2c(ncn2COCCO)c(=O)[nH]1` [ACYCLOVIR], the pIC50 in assay [1], in assay [2], in assay [3] and in assay [4] was under 3.88 each time.
With `COc1ccc2cccc(CCNC(C)=O)c2c1` [AGOMELATINE], the pIC50 in assay [1], in assay [2], in assay [3] and in assay [4] was under 3.88 each time.
On to `CCCSc1ccc2nc(NC(=O)OC)[nH]c2c1` [ALBENDAZOLE], for which the pIC50 in assay [1], in assay [2], in assay [3] and in assay [4] was under 3.88 throughout.
Consider `Oc1ncnc2[nH]ncc12` [ALLOPURINOL], for which the pIC50 in assay [1], in assay [2], in assay [3] and in assay [4] was under 3.88 in each case.
On to `C=CCc1ccccc1OCC(O)CNC(C)C` (centres undefined) [ALPRENOLOL], for which the pIC50 in assay [1], in assay [2], in assay [3] and in assay [4] was under 3.88 in each case.
Regarding `C[C@H]1CN(C[C@H](Cc2ccccc2)C(=O)NCC(=O)O)CC[C@@]1(C)c1cccc(O)c1` [ALVIMOPAN], the pIC50 in assay [1], in assay [2], in assay [3] and in assay [4] was under 3.88 in each case.
With `NCC[C@H](O)C(=O)N[C@@H]1C[C@H](N)[C@@H](O[C@H]2O[C@H](CN)[C@@H](O)[C@H](O)[C@H]2O)[C@H](O)[C@H]1O[C@H]1O[C@H](CO)[C@@H](O)[C@H](N)[C@H]1O` [AMIKACIN], the pIC50 in assay [1], in assay [2], in assay [3] and in assay [4] was under 3.88 throughout.
For the molecule `CCC1(c2ccc(N)cc2)CCC(=O)NC1=O` (centres undefined) [AMINOGLUTETHIMIDE], the pIC50 in assay [1], in assay [2], in assay [3] and in assay [4] was under 3.88 in each case.
As to `Cn1c(=O)c2[nH]cnc2n(C)c1=O` [AMINOPHYLLINE], the pIC50 in assay [1] is 3.88; in assay [2], under 3.88; in assay [3], under 3.88; in assay [4], under 3.88.
As to `CCN1CCCC1CNC(=O)c1cc(S(=O)(=O)CC)c(N)cc1OC` (centres undefined) [AMISULPRIDE], the negative-log IC50 (pIC50) in assay [1], in assay [2], in assay [3] and in assay [4] was under 3.88 throughout.
Take `CC(=O)Nc1ccc(/C=N/NC(N)=S)cc1` [AMITHIOZONE]: the pIC50 in assay [1], in assay [2], in assay [3] and in assay [4] was under 3.88 each time.
Turning to `CN(C)CCC=C1c2ccccc2CCc2ccccc21` [AMITRIPTYLINE], the pIC50 in assay [1], in assay [2], in assay [3] and in assay [4] was under 3.88 throughout.
Take `CC(C)c1ccc2oc3nc(N)c(C(=O)O)cc3c(=O)c2c1` [AMLEXANOX]: the pIC50 in assay [1] is 5.66; in assay [2] it was under 3.88; in assay [3] it was 3.98; in assay [4], under 3.88.
In the case of `CCOC(=O)C1=C(COCCN)NC(C)=C(C(=O)OC)C1c1ccccc1Cl` (centres undefined) [AMLODIPINE], the pIC50 in assay [1], in assay [2], in assay [3] and in assay [4] was under 3.88 throughout.
For `Clc1ccc2c(c1)C(N1CCNCC1)=Nc1ccccc1O2` [AMOXAPINE], the pIC50 in assay [1], in assay [2], in assay [3] and in assay [4] was under 3.88 throughout.
For the molecule `CC1(C)S[C@@H]2[C@H](NC(=O)[C@H](N)c3ccc(O)cc3)C(=O)N2[C@H]1C(=O)O` [AMOXICILLIN], the pIC50 in assay [1], in assay [2], in assay [3] and in assay [4] was under 3.88 in each case.
As for `COc1cc(NS(C)(=O)=O)ccc1Nc1c2ccccc2nc2ccccc12` [AMSACRINE], the pIC50 in assay [1] was 5.13; in assay [2] it was under 3.88; in assay [3], under 3.88; in assay [4] it was under 3.88.
Turning to `CC(C)(C#N)c1cc(Cn2cncn2)cc(C(C)(C)C#N)c1` [ANASTROZOLE], the pIC50 in assay [1], in assay [2], in assay [3] and in assay [4] was under 3.88 each time.
For `O=C1c2c(O)cccc2Cc2cccc(O)c21` [ANTHRALIN], the pIC50 in assay [1], in assay [2], in assay [3] and in assay [4] was under 3.88 throughout.
With `Cc1cc(=O)n(-c2ccccc2)n1C` [ANTIPYRINE], the pIC50 in assay [1], in assay [2], in assay [3] and in assay [4] was under 3.88 throughout.
With `CN1CCc2cccc3c2[C@H]1Cc1ccc(O)c(O)c1-3` [APOMORPHINE], the pIC50 in assay [1], in assay [2], in assay [3] and in assay [4] was under 3.88 each time.
For `C[C@@H](O[C@H]1OCCN(Cc2n[nH]c(=O)[nH]2)[C@H]1c1ccc(F)cc1)c1cc(C(F)(F)F)cc(C(F)(F)F)c1` [APREPITANT], the pIC50 in assay [1], in assay [2], in assay [3] and in assay [4] was under 3.88 throughout.
In the case of `C[C@@H]1CC[C@H]2[C@@H](C)C(=O)O[C@@H]3O[C@@]4(C)CC[C@@H]1[C@]32OO4` [ARTEMISININ], the pIC50 in assay [1], in assay [2], in assay [3] and in assay [4] was under 3.88 in each case.
Regarding `C[C@H]1[C@H](OC(=O)CCC(=O)O)O[C@@H]2O[C@@]3(C)CC[C@H]4[C@H](C)CC[C@@H]1[C@@]24OO3` [ARTESUNATE], the pIC50 in assay [1], in assay [2], in assay [3] and in assay [4] was under 3.88 each time.
On to `CC(=O)Oc1ccccc1C(=O)O` [ASPIRIN], for which the pIC50 in assay [1], in assay [2], in assay [3] and in assay [4] was under 3.88 throughout.
For the molecule `CC(C)NCC(O)COc1ccc(CC(N)=O)cc1` (centres undefined) [ATENOLOL], the pIC50 in assay [1], in assay [2], in assay [3] and in assay [4] was under 3.88 in each case.
Regarding `CNCC[C@@H](Oc1ccccc1C)c1ccccc1` [ATOMOXETINE HYDROCHLORIDE], the pIC50 in assay [1], in assay [2], in assay [3] and in assay [4] was under 3.88 in each case.

Source of the values: ChEMBL document CHEMBL4028801, “A multifactorial approach to hepatobiliary transporter assessment enables improved therapeutic compound development” (Toxicol Sci, 2013).
